Data on 1 compound can be found in patent US7638554B2, “Flavanoids as chemotherapeutic, chemopreventive, and antiangiogenic agents” (SRI International, priority 2002, dated 2009).

pIC50: −log10 of the molar value.

Data set [1] deals with MCF-7 human breast carcinoma cells. Nature of the data set: Cell cycle analysis in MCF-7 cells. Format: cell-based. To be noted: 1 μM, 24 h.
A further data set has as its target T1, p38 MAPK (Homo sapiens, UniProt Q16539).
T1 construct: endogenous in cells; host or cells: MCF-7 human breast cancer cells
Put plainly: Inhibition of p38 MAPK in MCF-7 cells. To be noted: MCF-7 human breast cancer cell line. Format: cell-based.

The test system of data set [2] is colon cancer cell line KM12. Put plainly: Growth inhibition, sulforhodamine-based protein determination, KM12. Format: cell-based. To be noted: Homo sapiens, KM12, 144 h; continuous exposure six days. The method, then: (§1) The novel compound SR 13179 was assayed for its ability to inhibit growth in several cancer cell lines. The cell lines studied included breast cancer cell line MCF-7 (ER+); prostate cancer cell lines LNCaP, PC3, and DU145; lung cancer cell line A427; ovarian cancer cell lines IGROV1, OVCAR-3, OVCAR-4, OVCAR-5, OVCAR-8, and SK-OV-3; and colon cancer cell lines COLO 205, HCC-2998, HCT-116, HCT-15, HT29, KM12, AND SW-620.
(§2) The growth assays for the breast cancer cell lines were conducted according to the method of Example 16. For the other cell lines, each assay was conducted with continuous exposure to the test compound at four log concentrations for six days, using a sulforhodamine-based protein determination to measure growth inhibition.

Data set [3] has as its system colon cancer cell line HCC-2998. Put plainly: Growth inhibition, sulforhodamine-based protein determination, HCC-2998. The conditions noted are these: Homo sapiens, HCC 2998, 144 h; continuous exposure six days. Format: cell-based. The method, then: as §1, §2
Data set [4] has as its system chick chorioallantoic membrane (CAM) blood vessels. Nature of the data set: Chick chorioallantoic membrane (CAM) assay for antiangiogenic activity. The format is in vivo. The method, then: The CAM assay, which is widely applied to evaluate in vivo antiangiogenic activity, was utilized with SR 13179.
The methods used were those of Folkman (Auerbach et al. (1974) Dev. Biol. 41:391-394), with some modifications. The test compound was dissolved in saline and methylcellulose, and the embryos dosed once daily for 12-14 days. Blood vessel density of each embryo was measured as the quantitative endpoint. The known antiangiogenic compound medroxyprogesterone acetate (MPA) was used as a positive control.

In data set [5] the test system is colon cancer cell line HCT-15. Nature of the data set: Growth inhibition, sulforhodamine-based protein determination, HCT-15. The format is cell-based. The conditions noted are these: Homo sapiens, HCT-15, 144 h; continuous exposure six days. The protocol:
as §1, §2

Data set [6] has as its system colon cancer cell line HT29. Put plainly: Growth inhibition, sulforhodamine-based protein determination, HT29. The format is cell-based. The conditions noted are these: Homo sapiens, HT-29, 144 h; continuous exposure six days. The method, then: as §1, §2
For data set [7], the system named is SKOV-3 human ovarian cancer xenografts. Put plainly: SKOV-3 adriamycin- and cisplatin-resistant human ovarian cancer xenografts in nude mice. The format is in vivo, female BALB/c mice. The method, then: The in vivo antitumor activity of SR 13179 against the highly aggressive adriamycin and cisplatin-resistant human ovarian cancer cell line SKOV-3 was evaluated in nude mice xenografts. The experiment was carried out as follows: Female BALB/c mice were inoculated subcutaneously with the human ovarian cancer SKOV-3 cells on both flanks. SR 13179 was administered to the mice on the same day as tumor cell inoculation, via two routes of administration, orally and intraperitoneally, in three doses of 10 mg/kg, 30 mg/kg and 100 mg/kg, once a day as a suspension in 0.5% hydroxypropylcellulose. Body weights and tumor volumes were measured twice a week. Results. […] The body weights of the treated mice were unaffected at all doses studied.

Data set [8] relates to MCF-10CA1a breast cancer cells. Put plainly: Boyden-chamber Matrigel invasion/migration assay, MCF-10CA1a. Format: cell-based, human. The protocol:
Cell Culture. MCF-10CA1a cells were cultured in Dulbecco's Modified Eagle Medium (DMEM) supplemented with 5% bovine serum, 2 mM glutamine and 1 mM non-essential amino acids. MDA-MB231 cells were grown in DMEM supplemented with 5% bovine serum. Cells were routinely maintained in a 5% CO2 incubator at 37° C.
General Procedure for Invasion Assay. MCF 10-CA1a or MDA-MB-231 breast cancer cells were treated with 1 or 5 μM of the compound being tested for 8 h. Cells were removed by trypsinizing and tested for their invasiveness by Boyden-chamber invasion assay. In the in vitro invasion/migration assays, a standard Matrigel-based assay, according to the manufacturer's (Becton-Dickinson) protocol, was used. Rehydrated Matrigel and control inserts were added to Falcon TC companion plates containing human fibronectin (30 μg/ml) as chemoattractant. Cellular suspensions (2×10^4 cells/0.5 ml) were added to individual wells of 24-well chambers (containing either control or Matrigel inserts), and the plates incubated (37° C., 5% CO2) in the presence of the compound being tested or vehicle for an additional 16-18 h. Non-invading or non-migrating cells were removed by scraping the top surfaces of the Matrigel and control inserts, respectively. The invading (or migrating) cells (on the bottom surface) were fixed (3.7% formaldehyde) and stained with Accustain (Sigma). The percent invasion was calculated as mean number of invading cells/the mean number of cells migrating through a control membrane×100.
The in vitro invasion through Matrigel was studied for two human breast cancer lines: MCF-10CA1a, a highly metastatic ER^+ line and MDA-MB-231, an ER^− line. […] At this concentration, SR13179 inhibited invasion of MDA-MB-231 by about 30% (and by 70% at 5 μM). To rule out a cytotoxic effect in the inhibition of invasion, a concurrent cytotoxicity assay was carried out and the number of viable cells was determined by MTT assay. There was less than 5% decrease in MDA-MB-231 cell viability at 5 μM concentration of SR13179 at 22 h. […]

Data set [9] concerns ovarian cancer cell line SK-OV-3. Put plainly: Growth inhibition, sulforhodamine-based protein determination, SK-OV-3. The format is cell-based. The conditions noted are these: Homo sapiens, SK-OV-3, 144 h; continuous exposure six days. The protocol:
as §1, §2

The test system of data set [10] is MCF-7 human breast cancer xenografts. Nature of the data set: MCF-7 human breast cancer xenografts in nude mice, i.p. administration. Format: in vivo. The method, then:
To evaluate the in vivo activity of novel compound SR 13179 against breast cancer, the compound was administered to female BALB/c nude mice that had been implanted with breast cancer cells. In this experiment, MCF-7 human breast cancer cells (2.5×10^6 cells) were implanted subcutaneously in both flanks of each mouse. Two days after cell inoculation, one estradiol pellet (10 μg/pellet) was implanted into each mouse by subcutaneous implantation. When tumor volumes reached 100 mm^3 (Day 0), SR 13179 was administered at a dose of 12.5 mg/kg, 25 mg/kg and 50 mg/kg intraperitoneally (i.p.) once a day, as a suspension in 0.5% hydroxypropyl cellulose. Body weights and tumor volumes were measured twice a week for 14 days. The tumor volume was expressed as % of initial tumor size which was designated as 100% on Day 0.

Setting [11] is: 11.1 μg/CAM, once daily for 12-14 days.
Setting [12] is: 12.5, 25 and 50 mg/kg i.p. once a day.

T1 sequence (Q16539 whole entry): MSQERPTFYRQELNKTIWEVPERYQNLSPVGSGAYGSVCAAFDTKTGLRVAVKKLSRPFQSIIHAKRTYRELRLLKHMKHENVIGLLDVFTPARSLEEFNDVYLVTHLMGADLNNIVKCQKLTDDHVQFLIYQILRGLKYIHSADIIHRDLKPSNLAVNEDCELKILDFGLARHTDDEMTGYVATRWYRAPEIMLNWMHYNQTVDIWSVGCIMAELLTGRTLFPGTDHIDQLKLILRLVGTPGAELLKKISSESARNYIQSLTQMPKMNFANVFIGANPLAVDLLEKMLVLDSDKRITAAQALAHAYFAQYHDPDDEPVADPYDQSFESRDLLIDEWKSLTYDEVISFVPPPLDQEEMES

Turning to `COc1cc(C2CC(O)c3ccc4ccccc4c3O2)cc(OC)c1OC` (centres unmarked) [SR 13179, 2-(3,4,5-trimethoxyphenyl)-3,4-dihydro-2H-benzo[h]chromen-4-ol], the “hypodiploid (sub G1) fraction compared with untreated control” value in data set [1] was “nearly three-fold increase”. In addition, on p38 MAPK, the “p38 MAPK” value is “inhibited”. Moreover, the pIC50 in data set [2] was 6.77; in [3], 6.56; in [5], 6.57; in [6], 6.37; in data set [9] it was 6.28. Also, the “Blood vessel density score” value in data set [4] (setting [11]) came out at 4.6 ± 2.2. In [4] (setting [11]), the “Percent inhibition relative to control” value was 57%. Moreover, the “in vivo antiangiogenic activity compared with MPA” value in data set [4] (CAM assay) was “equivalent to that of MPA”. In addition, in data set [7] (Day 10, oral and i.p., 10, 30 and 100 mg/kg once a day), the “tumors smaller than untreated control” value was “about 50%”. For the same compound, the “body weights of the treated mice” value is “unaffected” in data set [7] (all doses studied (10, 30, 100 mg/kg; oral and i.p.)); “unaffected” in data set [10] (setting [12]). The “tumor growth compared to untreated control” value in data set [7] (duration of the four-week study, oral and i.p.) is listed as “significantly inhibited”. Moreover, in data set [8] (1 μM), the Invasion was 10 % of Control. Also, the Migration in [8] (1 μM) is listed as 70 % of Control. In [8] (Homo sapiens, read-out: inhibition of invasion through Matrigel), the inhibition at 1 µM was found to be 90%. Also, the tumor growth entry in data set [10] (12.5 mg/kg/day i.p., 14 days) is “complete suppression of tumor growth”. In addition, the “tumor size compared to the size at Day 0” value in data set [10] (50 mg/kg/day i.p., 14 days) was “slight regression in tumor size”. Besides, in data set [10] (setting [12]), the overt toxicity entry was “no overt toxicity was observed”.
